Experimental findings from US12616711B2, “Therapeutic dendrimer” (Starpharma Pty Ltd, priority 2019, dated 2026) are described below.

By GI50 is commonly meant the concentration giving 50% growth inhibition.

In one series the test system is A549 cells. The experiment in a line: alamarBlue viability assay, GI50. The class given is cell-based, human. As to conditions: 72 h, given in μM Gemcitabine. The method, then: (§1) A study was carried out to determine the ability of example dendrimers to inhibit growth of cancer cell lines using an alamarBlue viability assay (Thermo Fisher, DAL1025).
(§2) The cytotoxicity of compounds toward MDA-MB-231, A549, H460, BxPC3 and CAPAN-1 cells were evaluated for viability. Cells were seeded at a density of 1.2-5×10^3 cells, dependent on cell growth rate, in 96 well plates and incubated overnight. Cells were then treated with serial dilutions of test compositions for 72 h (MDA-MB-231, A549 and H460 lines) or 144 h (BxPC3 and CAPAN-1 lines). For cell viability analysis, 10% media volume of alamar Blue was added during the final 6-8 h of incubation. Reduction of alamarBlue in living cells yields a red fluorescent metabolite that can be read on a plate reader (560 nm excitation/610 nm emission.). Cell viability and subsequent GI50 values were was determined from the blank corrected dose-response curves, with 4-parameter nonlinear curve fit, in GraphPad Prism.

A further series deals with CAPAN-1 cells. The experiment in a line: alamarBlue viability assay, GI50. Format: cell-based, human. The following applies: 144 h, given in μM Gemcitabine. As for the experimental part: as §1, §2
On the technique in general: The colour change of resazurin is a common sign of viable cells or microbes.

The next series deals with BxPC3 cells. The experiment in a line: alamarBlue viability assay, GI50. The class given is cell-based. As to conditions: BxPC-3, 144 h, given in μM Gemcitabine. The method, then:
as §1, §2

For another series, the system named is H460 cells. Description: alamarBlue viability assay, GI50. Format: cell-based. As to conditions: given in μM Gemcitabine. The method, then:
as §1, §2

Another series deals with MDA-MB-231 cells. Description: alamarBlue viability assay, GI50. The class given is cell-based. The following applies: 72 h, given in μM Gemcitabine. As for the experimental part: as §1, §2
For series [1], the system named is CAPAN-1 tumour xenografts. The experiment in a line: CAPAN-1 mouse xenograft pancreatic cancer model, efficacy vs gemcitabine (Example 11). The following applies: for Tumour Growth inhibition (%) v vehicle: day 29, Gemcitabine 120, 1 at 2, 4 at 5, 2 at 5, 5 at 3 mg/kg; for Tumour Growth inhibition (%) v vehicle / effect on CAPAN-1 tumours over the dosing study (FIG. 4): i.v. twice weekly for 3 weeks; for survival compared to Gemcitabine (Kaplan-Meier): P<0.0001 Mantel Cox, Gemcitabine 120 mg/kg; for effect on CAPAN-1 tumours over the dosing study (FIG. 4): 4 at 5, 2 at 5, 5 at 3 mg/kg. Format: in vivo. As for the experimental part:
A CAPAN-1 (human pancreatic adenocarcinoma cell line) mouse xenograft pancreatic cancer model study was carried out to assess the anti-tumour efficacy properties of example dendrimers compared to gemcitabine.
Compounds 1, 4, 2 and 5 were prepared by dissolving in sterile saline solution immediately prior to dosing and. Gemcitabine ((DBL™ Gemcitabine injection, Hospira Pty Ltd.) was further diluted in saline solution prior to dosing.
Female NOD-SCID Interleukin-2 receptor gamma chain null mice (aged 9 weeks) were inoculated subcutaneously on the flank with 5×10^6 CAPAN-1 cells in PBS:Matrigel (1:1). Mice were weighed and tumours measured twice weekly using electronic callipers. Tumour volume (mm^3) was calculated as length (mm)/2×width (mm)^2. On day seventeen after implantation, mice with similar sized tumours (mean tumour volume 100 mm^3) were randomised into 6 groups of 10 animals.
Compounds were administered via tail vein i.v. injection, twice weekly at […] for 3 weeks. Groups were dosed as follows: • 1. Saline—vehicle • 2. Gemcitabine (120 mg/kg, i.v.) • 3. 1 (2 mg/kg, i.v.) • 4. 4 (5 mg/kg, i.v.) • 5. 2 (5 mg/kg, i.v.) • 6. 5 (3 mg/kg, i.v.)
Tumour growth inhibition was analysed at day 29 (where all vehicle animals remained in the study) using one-way ANOVA followed by Dunnett's multiple comparison test. Tumour growth curves of gemcitabine and DEP-gemcitabine were compared over 47 days (when all treatment group animals remained in the study for tumour-related endpoints) using a mixed-effects model followed by Tukey's multiple comparison test. […] All statistical analysis was performed using GraphPad Prism 8.1.

Series [2] concerns CAPAN-1 tumour xenografts. Description: CAPAN-1 mouse xenograft, alone or with Abraxane or DEP-DTX (Examples 13a, 13b). Format: in vivo. As to conditions: day 29; i.v.; Gemcitabine 120, Abraxane 40, 3 at 6.5, 6 at 5 (day 1) then 4, DEP-DTX 24 (10 in combination) mg/kg. The method, then: Mice were inoculated and tumours sized as described above. On day nineteen after implantation, mice with similar sized tumours (mean tumour volume 100 mm^3) were randomised into 7 groups of 10 animals. […] Abraxane® was dissolved in saline solution immediately prior to dosing.
Abraxane®, gemcitabine and dendrimers were administered at days 1, 10, and 17 via tail vein i.v. injection, at 0.1 ml/10 g body weight.
In an extension of Example 13a, two additional groups of mice were prepared and dosed to assess the anti-tumour efficacy properties of a taxane-dendrimer combined with a nucleoside analogue-dendrimer (e.g. 6). Mice were inoculated and tumours sized as described above.
Dendrimers were administered weekly via tail vein i.v. injection, at 0.1 ml/10 g body weight for 3 weeks.
All statistical analyses were performed using GraphPad Prism 8.1.

Series [3] deals with CAPAN-1 tumour xenografts. The experiment in a line: CAPAN-1 mouse xenograft, dosing regimen study (Example 12). As to conditions: 5 mg/kg i.v. weekly for 3 weeks compared to 2 mg/kg i.v. biweekly for 3 weeks. Format: in vivo. As for the experimental part:
A CAPAN-1 (human pancreatic adenocarcinoma cell line) mouse xenograft pancreatic cancer model was established to assess the effects of weekly compared to biweekly administration of an example dendrimer.
Compound 1 was prepared as described above. Mice were inoculated and tumours sized as described above. On day seventeen after implantation, mice with similar sized tumours (mean tumour volume 140 mm^3) were randomised into 2 groups of 5 animals: • 1. 1 (5 mg/kg, i.v.) weekly for 3 weeks; and • 2. 1 (2 mg/kg, i.v.) biweekly for 3 weeks.

A short description of a further series: Plasma release study. The class given is in vitro ADME. As to conditions: 37° C. As for the experimental part: The plasma was placed in a CO2 incubator at 3% CO2 at 42% relative humidity to reach a pH of 7.4.
Gemcitabine HCl (28.5 mg) was dissolved in Milli Q water and the resulting stock solution transferred to a 5 mL volumetric flask and diluted to provide working standard solutions.
The plasma release study was conducted by adding 1 mL of plasma (centrifuged and filtered) to 0.2 mL of dendrimer solution (approximately 2 mg/mL gemcitabine equivalent in miliQ water) for example dendrimers and a comparator. The mixtures were vortexed (30 sec) then incubated at 37° C. 5% CO2. At various timepoints aliquots (0.1 mL) were removed and added to ACN (0.2 mL). The resulting mixtures were vortexed (30 s), centrifuged (10 min, 4° C.), filtered and analysed by HPLC (C8 Xbridge, 3×100 mm, […], 0.4 mL/min., gradient: 5% ACN/H2O) (0-1 min), 5-80% ACN (1-7 min), 80% ACN (7-12 min), 80-5% ACN (12-13 min), 5% ACN (13-15 min), 100 mM ammonium formate buffer, column temperature 50° C., sample tray 4° C., 260 nm.

On to `Nc1ccn([C@@H]2O[C@H](CO)[C@@H](O)C2(F)F)c(=O)n1` [Gemcitabine, gemcitabine, reference compound], for which the GI50 was determined as 0.011 µM with A549 cells (Homo sapiens); 0.009 µM in the series with CAPAN-1 cells (Homo sapiens); 0.009 µM in the series with BxPC3 cells (Homo sapiens); 0.042 µM in the series on H460 cells (Homo sapiens, NCI-H460, 72 h); 0.004 µM in the series on MDA-MB-231 cells (Homo sapiens). In series [1], the “Tumour Growth inhibition (%) v vehicle” value is 84%. In addition, the “Tumour Growth inhibition (%) v vehicle at day 29” value in [2] is 59%.
For the molecule “BHALys[Lys]32[α-TDA-DTX]32[ε-PolyPEG2000]32 [DEP-DTX, reference compound]”, the “Tumour Growth inhibition (%) v vehicle at day 29” value in [2] is 108%.
As to “[BHA Lys][Lys]30[Lys]32 [Compound 1, [BHA Lys][Lys]30[Lys]32 [(α-NH-TDA-Gemcitabine)32 (ε-NHPEG˜1100)32]]”, the GI50 with A549 cells was 0.051 µM; in the series on CAPAN-1 cells, 0.033 µM; in the series with BxPC3 cells, 0.007 µM; in the series on H460 cells (72 h), 0.215 µM. Further, the “Tumour Growth inhibition (%) v vehicle” value in [1] was 75%. In series [3], the “suppression of tumour growth, weekly vs biweekly regimen (FIG. 5)” value is recorded as “more effective at suppressing tumour growth than 1, given biweekly at 2 mg/kg”.
For “[BHA Lys][Lys]30[Lys]32 [Compound 2, [BHA Lys][Lys]30[Lys]32 [(α-NH-TDA-Gemcitabine)32 (ε-NHPEG570)32]]”, the concentration for 50% growth inhibition (GI50) was 0.034 µM in the series on A549 cells, 0.021 µM in the series with CAPAN-1 cells, 0.412 µM with H460 cells (72 h) and 0.004 µM in the series with MDA-MB-231 cells. Besides, the “survival compared to Gemcitabine (Kaplan-Meier)” value (shortened to “survival compared to Gemcitabine”) in series [1] was “significantly extended survival beyond that of Gemcitabine”. In addition, the “Tumour Growth inhibition (%) v vehicle” value in [1] is 94%. Besides, the “effect on CAPAN-1 tumours over the dosing study (FIG. 4)” value (“effect … over the dosing study (FIG. 4)” below) in series [1] is given as “complete stasis”.
Take “[BHA Lys][Lys]30[Lys]32 [Compound 4, [BHA Lys][Lys]30[Lys]32 [(α-NH-DGA-Gemcitabine)32 (ε-NHPEG˜570)32]]”: the GI50 with A549 cells was determined as 0.031 µM; in the series with CAPAN-1 cells, 0.011 µM; with BxPC3 cells, 0.013 µM; in the series with H460 cells (72 h), 0.061 µM; with MDA-MB-231 cells it was 0.003 µM. In series [1], the “survival compared to Gemcitabine” value is recorded as “significantly extended survival beyond that of Gemcitabine”. The “Tumour Growth inhibition (%) v vehicle” value in [1] was determined as 91%. For the same molecule, the “effect … over the dosing study (FIG. 4)” value in series [1] was “complete stasis”.
With “[BHA Lys][Lys]30[Lys]32 [Compound 5, [BHA Lys][Lys]30[Lys]32 [(α-NH-DGA-Gemcitabine)32 (ε-NHPEG˜1100)32]]”, the GI50 in the series with A549 cells was found to be 0.044 µM; with CAPAN-1 cells it was 0.003 µM; in the series with H460 cells (72 h), 0.046 µM; in the series with MDA-MB-231 cells, 0.003 µM. Also, in series [1], the “survival compared to Gemcitabine” value is “significantly extended survival beyond that of Gemcitabine”. Moreover, in [1], the “Tumour Growth inhibition (%) v vehicle” value is listed as 94%. In [1], the “effect … over the dosing study (FIG. 4)” value was “complete stasis”.
As to “[BHA Lys][Lys]30[Lys]32 [Compound 6, [BHA Lys][Lys]30[Lys]32 [(α-NH-DGA-Gemcitabine)32 (ε-NHPEG˜2100)32]]”, the “Human Plasma % release” value in “Plasma release study” (0 h) was 0.49%; in the series “Plasma release study” (2 h), 9.94%; in the series “Plasma release study” (4 h), 18.18%; in “Plasma release study” (6 h), 39.84%; in the series “Plasma release study” (24 h), 71.13%; in “Plasma release study” (30 h), 77.98%. The concentration for 50% growth inhibition (GI50) is 0.045 µM in the series with A549 cells; 0.006 µM in the series on CAPAN-1 cells; 0.001 µM with BxPC3 cells; 0.056 µM in the series with H460 cells (72 h); 0.005 µM with MDA-MB-231 cells. Moreover, in series [2], the “Tumour Growth inhibition (%) v vehicle at day 29” value is reported as 83%.
In the case of “[BHA Lys][Lys]30[Lys]32 [Compound 8, [BHA Lys][Lys]30[Lys]32 [(α-NH-Glu-Gemcitabine)32 (ε-NHPEG˜2100)32]]”, the “Human Plasma % release” value in “Plasma release study” (0 h) is recorded as −0.17%; in the series “Plasma release study” (2 h) it was 0.22%; in the series “Plasma release study” (4 h), −1.99%; in “Plasma release study” (6 h), 3.02%; in “Plasma release study” (24 h), 6.19%; in the series “Plasma release study” (30 h) it was 5.39%. The GI50 in the series on A549 cells amounted to 0.5 µM; in the series on MDA-MB-231 cells it was 0.103 µM.
